Measurements published in ChEMBL document CHEMBL1201862, “PubChem BioAssay data set” (2004).
“And” between values parts separate entries of the source, which are not always exact repeats. Identical values can stand only once. The source made the active and inactive calls.

Molecular target: T1, Heat shock factor protein 1 (Mus musculus, UniProt P38532)
T1 sequence (P38532 whole entry): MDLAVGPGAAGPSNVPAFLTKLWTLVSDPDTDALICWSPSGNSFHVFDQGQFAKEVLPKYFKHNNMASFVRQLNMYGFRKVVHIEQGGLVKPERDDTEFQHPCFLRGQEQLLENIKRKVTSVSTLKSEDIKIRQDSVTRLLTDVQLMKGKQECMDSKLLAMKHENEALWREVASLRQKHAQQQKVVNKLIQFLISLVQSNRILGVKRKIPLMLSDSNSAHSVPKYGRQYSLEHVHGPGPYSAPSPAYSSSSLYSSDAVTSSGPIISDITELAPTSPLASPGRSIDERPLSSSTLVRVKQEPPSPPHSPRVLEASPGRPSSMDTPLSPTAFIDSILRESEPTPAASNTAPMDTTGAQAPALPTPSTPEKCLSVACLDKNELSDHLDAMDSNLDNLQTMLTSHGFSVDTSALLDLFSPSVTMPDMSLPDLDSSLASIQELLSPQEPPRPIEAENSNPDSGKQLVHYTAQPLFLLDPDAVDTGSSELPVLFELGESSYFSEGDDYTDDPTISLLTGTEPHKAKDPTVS
Test: inhibition of MG132-induced HSE-luciferase signal, confirmation, cell-based, NIH3T3, luminescence, dose retest (AID 2382);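 further: NIH3T3 fibroblasts with HSF1-driven luciferase reporter stressed by proteasome inhibitor MG132; luminescence from HSF1-driven luciferase expression after 8 hours of MG132 stress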
Assay type: functional
Conditions: not given

Structure (SMILES)	EC50
Cc1ccc(S(=O)(=O)NC(=NCc2ccccc2)c2ccc(F)cc2)cc1	> 195 µM (not active)
Cc1cccc(Nc2ccncc2S(=O)(=O)NC(=O)NC(C)C)c1 [TORSEMIDE]	> 195 µM (not active)
CCCCNC(=O)CN=C(S)N(Cc1ccccc1)Cc1cccs1	> 195 µM (not active)
COc1ccc(N2C(=O)C(C)(C)C2c2c(O)ccc3ccccc23)cc1 (centres undefined)	> 195 µM (not active)

More lines, now with the values ahead:

EC50	Structure (SMILES)
> 195 µM (not active)	Cc1cccc(CN2CCNC2=O)c1
> 195 µM (not active)	CCc1nn(CC(=O)N2CCC(C(N)=O)CC2)c(=O)c2cc3occc3n12
> 195 µM (not active)	CCOC(=O)CSc1nnc(-c2ccccc2)c(-c2ccccc2)n1
> 195 µM (not active)	O=C1C2CCCN2c2ccc(S(=O)(=O)N3CCOCC3)cc2N1Cc1cccc(C(F)(F)F)c1 (centres undefined)
> 195 µM (not active)	CCCCn1c(=O)n(CC(=O)Nc2c(CC)cccc2CC)c(=O)c2c1nc(CO)n2CCC
> 195 µM (not active)	CCn1c(C(=O)O)c(CC(=O)Nc2ccccc2OC)c2ccccc21
> 195 µM (not active)	Cc1ccc(S(=O)(=O)N2CCN(C(=O)c3c(-c4ccccc4)noc3C)CC2)c(C)c1
> 195 µM (not active)	Nc1nc(NCc2ccco2)nc(NC2CCCCC2)c1[N+](=O)[O-]
> 195 µM (not active)	CCOc1cc(/C=N/NC(=O)c2cccc(S(=O)(=O)N3CCOCC3)c2)ccc1OCC(=O)N(C)C

Molecular target: Luciferin 4-monooxygenase (Photinus pyralis, UniProt P08659)
Test: firefly luciferase enzyme inhibitors, dose response, biochemical, luminescence (AID 1891)
Conditions: not given

Chain of Luciferin 4-monooxygenase (P08659 whole entry): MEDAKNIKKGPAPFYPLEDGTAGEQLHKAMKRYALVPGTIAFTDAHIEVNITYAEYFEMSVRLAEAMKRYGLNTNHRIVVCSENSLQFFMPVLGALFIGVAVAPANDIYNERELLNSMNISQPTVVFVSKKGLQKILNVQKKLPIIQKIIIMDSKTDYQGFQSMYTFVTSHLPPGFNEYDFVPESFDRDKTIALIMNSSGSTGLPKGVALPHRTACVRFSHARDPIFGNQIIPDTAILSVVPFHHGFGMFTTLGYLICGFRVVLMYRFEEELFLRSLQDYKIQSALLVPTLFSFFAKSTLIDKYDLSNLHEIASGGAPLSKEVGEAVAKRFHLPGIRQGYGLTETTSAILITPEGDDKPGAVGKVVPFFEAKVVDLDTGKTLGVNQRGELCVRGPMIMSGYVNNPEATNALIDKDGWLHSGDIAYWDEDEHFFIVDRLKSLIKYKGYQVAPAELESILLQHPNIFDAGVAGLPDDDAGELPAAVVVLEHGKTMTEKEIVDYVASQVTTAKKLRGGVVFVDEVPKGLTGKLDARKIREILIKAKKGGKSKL

Structure (SMILES)	EC50
O=C(Cn1c(O)c(N=NC(=O)c2ccncc2)c2ccccc21)Nc1ccccc1	> 112 µM (not active)
Cc1nc2oc3c(NCC4CCCO4)ncnc3c2c2c1COC(C)(C)C2 (centres undefined)	> 112 µM (not active)
Cc1cc(-c2ccc(S(=O)(=O)N3CCN(c4ccccc4F)CC3)s2)on1	> 112 µM (not active)

Test system: not listed separately
Test: Luminescence Cell-Based Dose Confirmation HTS to Identify Inhibitors of Platelet Dense Granule Release. [Related pubchem assays: 1663 (Primary HTS), 1678 (Summary of Project)]
Assay type: functional
Conditions: not given

Structure (SMILES)	EC50
O=C(Cn1c(O)c(N=NC(=O)c2ccncc2)c2ccccc21)Nc1ccccc1	> 112 µM (not active)
Cc1nc2oc3c(NCC4CCCO4)ncnc3c2c2c1COC(C)(C)C2 (centres undefined)	> 112 µM (not active)
Cc1cc(-c2ccc(S(=O)(=O)N3CCN(c4ccccc4F)CC3)s2)on1	> 112 µM (not active)

Molecular target: Cytochrome P450 2C19 (Homo sapiens, UniProt P33261)
Test: Cytochrome panel assay with activity outcomes. Panel member name: p450-cyp2c19 Compounds with AC50 equal or less than 10 uM are considered active
Assay type: functional
Conditions: read-out: AC50

Chain of Cytochrome P450 2C19 (P33261 whole entry): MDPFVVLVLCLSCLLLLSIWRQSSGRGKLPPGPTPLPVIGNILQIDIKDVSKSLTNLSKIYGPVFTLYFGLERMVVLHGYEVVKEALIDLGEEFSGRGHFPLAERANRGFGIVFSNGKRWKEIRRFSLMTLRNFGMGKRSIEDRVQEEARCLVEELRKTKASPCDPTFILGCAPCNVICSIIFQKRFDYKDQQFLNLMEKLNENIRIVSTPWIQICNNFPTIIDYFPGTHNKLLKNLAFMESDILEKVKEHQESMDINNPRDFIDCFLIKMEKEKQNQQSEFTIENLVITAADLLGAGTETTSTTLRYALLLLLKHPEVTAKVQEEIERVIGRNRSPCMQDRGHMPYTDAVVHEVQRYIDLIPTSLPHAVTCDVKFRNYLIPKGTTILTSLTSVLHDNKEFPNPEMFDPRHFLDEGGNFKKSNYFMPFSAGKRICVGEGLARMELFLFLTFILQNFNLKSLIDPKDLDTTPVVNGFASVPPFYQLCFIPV

Structure (SMILES)	AC50
COC(=O)CSC(C(=O)Nc1ccc(C)c(C)c1)c1ccccc1 (centres undefined)	0.398 µM (inconclusive)
Fc1ccccc1OCCCCCCN1CCCC1	39.8 µM (inconclusive)
CCN(CCO)Cc1csc2cccc(Br)c12	22.4 µM (inconclusive)

Second part, the compound after the results:

AC50	Structure (SMILES)
5.01 µM (inconclusive)	Cc1nn(-c2ccccc2)c(-c2ccccc2)c1C(=O)O
3.55 µM (inconclusive)	O=C1C2CCCN2c2ccc(S(=O)(=O)N3CCOCC3)cc2N1Cc1cccc(C(F)(F)F)c1 (centres undefined)

Molecular target: T2, Corticotropin-releasing factor receptor 2/Corticotropin-releasing factor-binding protein (Homo sapiens, UniProt P24387+Q13324)
T2 sequence (Q13324 whole entry): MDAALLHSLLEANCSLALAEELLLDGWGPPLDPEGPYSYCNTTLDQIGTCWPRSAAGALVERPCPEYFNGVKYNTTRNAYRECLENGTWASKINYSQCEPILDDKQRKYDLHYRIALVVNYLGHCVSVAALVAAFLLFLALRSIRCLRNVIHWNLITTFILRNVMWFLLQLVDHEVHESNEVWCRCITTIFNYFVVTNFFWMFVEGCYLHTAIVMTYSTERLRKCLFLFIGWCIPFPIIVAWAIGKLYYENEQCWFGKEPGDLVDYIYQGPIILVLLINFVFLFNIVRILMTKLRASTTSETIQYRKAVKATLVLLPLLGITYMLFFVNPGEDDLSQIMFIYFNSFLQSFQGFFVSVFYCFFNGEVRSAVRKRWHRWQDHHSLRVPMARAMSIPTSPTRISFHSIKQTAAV
T2 sequence (P24387 whole entry): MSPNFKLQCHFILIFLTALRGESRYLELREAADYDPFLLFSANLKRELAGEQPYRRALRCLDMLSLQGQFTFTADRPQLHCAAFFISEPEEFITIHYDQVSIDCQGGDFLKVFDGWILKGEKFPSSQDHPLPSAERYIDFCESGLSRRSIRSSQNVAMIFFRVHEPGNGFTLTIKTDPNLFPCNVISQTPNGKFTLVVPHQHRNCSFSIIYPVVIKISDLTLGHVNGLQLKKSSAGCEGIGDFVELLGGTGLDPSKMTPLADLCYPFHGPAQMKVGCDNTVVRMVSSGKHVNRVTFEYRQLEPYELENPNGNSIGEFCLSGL
Test: Dose Response confirmation of uHTS hits for small molecule antagonists of the CRF-binding protein and CRF-R2 receptor complex.
Assay type: functional
Conditions: read-out: IC50_Mean

Structure (SMILES)	IC50
CN(C)c1c([N+](=O)[O-])ncn1C	> 47.1 µM (inactive)
COc1ccc(C2=NN(C)/C(=N\Cc3ccccc3)SC2)cc1	> 47.1 µM (inactive)
CCCN(C(=O)CSc1n[nH]c(-c2ccc(OC)cc2)n1)c1c(N)n(Cc2ccccc2)c(=O)[nH]c1=O	> 47.1 µM (inactive)
Cc1ccccc1Nc1scc(-c2ccc(Br)cc2)[n+]1-c1ccccc1C	> 47.1 µM (inactive)
CC1=C(C(=O)OC(C)(C)C)C(c2cccc3ccccc23)NC(=O)N1 (centres undefined)	> 47.1 µM (inactive)
CCN(CCO)Cc1csc2cccc(Br)c12	> 47.1 µM (inactive)
Cn1nc(N)c2ncc(C(Cl)(Cl)Cl)nc21	> 47.1 µM (inactive)

The remaining lines, values ahead:

IC50	Structure (SMILES)
> 47.1 µM (inactive)	COc1ccc2[nH]cc(CCN=C(S)NC3CCCC3)c2c1
34.8 µM (active)	Nc1cc(OC(=O)c2ccco2)nn1S(=O)(=O)c1ccc(F)cc1
> 47.1 µM (inactive)	CC(=O)Nc1ccc(NC(=O)C(C)OC(=O)C2CCCCC2)cc1 (centres undefined)

Molecular target: T2, Corticotropin-releasing factor receptor 2/Corticotropin-releasing factor-binding protein
Test: activators of CRF receptor 2 with binding protein – uHTS hits, confirmation (AID 602473)
Assay type: functional
Conditions: read-out: EC50_Mean

Structure (SMILES)	EC50
CN(C)c1c([N+](=O)[O-])ncn1C	> 53 µM (inactive)
COc1ccc(C2=NN(C)/C(=N\Cc3ccccc3)SC2)cc1	> 53 µM (inactive)
CCCN(C(=O)CSc1n[nH]c(-c2ccc(OC)cc2)n1)c1c(N)n(Cc2ccccc2)c(=O)[nH]c1=O	> 53 µM (inactive)
Cc1ccccc1Nc1scc(-c2ccc(Br)cc2)[n+]1-c1ccccc1C	> 53 µM (inactive)
CC1=C(C(=O)OC(C)(C)C)C(c2cccc3ccccc23)NC(=O)N1 (centres undefined)	> 53 µM (inactive)
CCN(CCO)Cc1csc2cccc(Br)c12	> 53 µM (inactive)
Cn1nc(N)c2ncc(C(Cl)(Cl)Cl)nc21	> 53 µM (inactive)

Further lines, results first:

EC50	Structure (SMILES)
> 53 µM (inactive)	COc1ccc2[nH]cc(CCN=C(S)NC3CCCC3)c2c1
> 53 µM (inactive)	Nc1cc(OC(=O)c2ccco2)nn1S(=O)(=O)c1ccc(F)cc1
> 53 µM (inactive)	CC(=O)Nc1ccc(NC(=O)C(C)OC(=O)C2CCCCC2)cc1 (centres undefined)

Test system: not listed separately
Test: P. falciparum Dd2 growth inhibitors, dose response, SYBR Green, cherry-picked samples (AID 1159567)
Assay type: functional, cell-based
Conditions: not given

Structure (SMILES)	AC50
C[C@H]1CN([C@@H](C)CO)C(=O)c2cc(NC(=O)Cc3cn(C)c4ccccc34)ccc2O[C@H]1CN(C)S(=O)(=O)c1ccccc1	4.86 µM (active)
COc1ccc(CN2CC3(C2)CN(Cc2ccc4c(c2)OCO4)[C@H](CO)c2[nH]c4cc(OC)ccc4c23)cc1	3.49 µM (active)
COc1ccccc1S(=O)(=O)N[C@H]1CC[C@@H](CCn2cc(C3CCCC3)nn2)O[C@@H]1CO	11.5 µM (active)
CC(C)(C)[S+]([O-])N1Cc2cc(C(=O)N[C@@H]3CCN(Cc4ccccc4)C3)nc(-c3cccc(C#CCC4CCCC4)c3)c2[C@H]1CCO (some centres undefined)	3.75 µM (active)

Molecular target: T3, Cytochrome P450 1A2 (Homo sapiens, UniProt P05177);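 further: PubChem cytochrome P450 panel assay, CYP1A2 panel member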
T3 sequence (P05177 whole entry): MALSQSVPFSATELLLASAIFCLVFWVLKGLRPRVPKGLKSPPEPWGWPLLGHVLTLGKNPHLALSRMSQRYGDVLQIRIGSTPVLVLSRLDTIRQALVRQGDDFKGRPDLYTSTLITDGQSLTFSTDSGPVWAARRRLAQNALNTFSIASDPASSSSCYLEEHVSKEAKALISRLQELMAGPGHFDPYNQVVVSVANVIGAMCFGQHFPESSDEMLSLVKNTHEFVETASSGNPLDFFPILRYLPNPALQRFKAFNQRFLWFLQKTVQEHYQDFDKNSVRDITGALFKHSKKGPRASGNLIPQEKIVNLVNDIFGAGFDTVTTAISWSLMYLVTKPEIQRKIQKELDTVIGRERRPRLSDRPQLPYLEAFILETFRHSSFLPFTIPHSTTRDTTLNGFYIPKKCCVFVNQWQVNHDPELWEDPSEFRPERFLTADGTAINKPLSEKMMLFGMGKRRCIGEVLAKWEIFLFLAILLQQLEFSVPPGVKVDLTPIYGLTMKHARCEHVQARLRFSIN
Test: not given
Conditions: not given

Structure (SMILES)	AC50
COC(=O)C(NC(=O)c1ccc(Cl)cc1)(Nc1nc(C)cs1)C(F)(F)F (centres undefined)	28.2 µM (inconclusive)
Cc1ccc(CS(=O)(=O)CCC(=O)NCc2cccs2)cc1	15.8 µM (inconclusive)
Cn1c(CNC(=O)Nc2ccccc2)nnc1SCc1ccccc1	25.1 µM (inconclusive)
N=C(N)NC(=O)c1nc(Cl)c(N)nc1N [AMILORIDE]	39.8 µM (inconclusive) and 12.6 µM (inconclusive)
COC(=O)CSC(C(=O)Nc1ccc(C)c(C)c1)c1ccccc1 (centres undefined)	8.91 µM (inconclusive)
Cc1ccc(/C=C/c2nnc(-c3ccc(C)cc3)o2)cc1	4.47 µM (inconclusive)
Fc1ccccc1OCCCCCCN1CCCC1	17.8 µM (inconclusive)
Cn1c(=O)c(CCc2ccccc2)nc2cnc(Nc3ccccc3)nc21	1.26 µM (inconclusive)

Next, values leading:

AC50	Structure (SMILES)
25.1 µM (inconclusive)	Cc1nn(-c2ccccc2)c(-c2ccccc2)c1C(=O)O
15.8 µM (inconclusive)	CCOC(=O)COc1cc(OCC(=O)OCC)c2c(=O)cc(-c3ccccc3)oc2c1
25.1 µM (inconclusive)	COc1ccc(NC(=O)N2CC[C@@]3(CCCN(C(=O)c4ccc(OC)cc4)C3)C2)cc1

Molecular target: Cytochrome P450 3A4 (Homo sapiens, UniProt P08684);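 further: CYP3A4 tested as one member of a cytochrome P450 panel screen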
Test: not given
Conditions: not given

Chain of Cytochrome P450 3A4 (P08684 whole entry): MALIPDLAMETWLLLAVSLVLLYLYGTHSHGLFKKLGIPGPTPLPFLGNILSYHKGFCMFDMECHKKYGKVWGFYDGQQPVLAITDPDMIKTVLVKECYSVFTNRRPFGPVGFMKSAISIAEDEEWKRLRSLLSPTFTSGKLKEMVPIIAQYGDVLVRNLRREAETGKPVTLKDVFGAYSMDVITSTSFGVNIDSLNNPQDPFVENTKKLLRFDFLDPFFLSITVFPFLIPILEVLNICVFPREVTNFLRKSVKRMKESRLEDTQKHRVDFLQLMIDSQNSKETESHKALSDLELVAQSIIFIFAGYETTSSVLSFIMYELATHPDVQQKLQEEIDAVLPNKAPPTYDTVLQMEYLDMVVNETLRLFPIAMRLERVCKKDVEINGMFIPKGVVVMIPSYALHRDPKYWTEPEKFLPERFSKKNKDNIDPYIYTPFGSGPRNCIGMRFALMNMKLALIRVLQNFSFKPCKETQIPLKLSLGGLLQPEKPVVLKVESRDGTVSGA

Structure (SMILES)	AC50
Cc1ccc(/C=C/c2nnc(-c3ccc(C)cc3)o2)cc1	10 µM (inconclusive)
Fc1ccccc1OCCCCCCN1CCCC1	17.8 µM (inconclusive)
Cn1c(=O)c(CCc2ccccc2)nc2cnc(Nc3ccccc3)nc21	12.6 µM (inconclusive)

Molecular target: Cytochrome P450 2C9 (Homo sapiens, UniProt P11712)
Test: not given
Conditions: not given

Chain of Cytochrome P450 2C9 (P11712 whole entry): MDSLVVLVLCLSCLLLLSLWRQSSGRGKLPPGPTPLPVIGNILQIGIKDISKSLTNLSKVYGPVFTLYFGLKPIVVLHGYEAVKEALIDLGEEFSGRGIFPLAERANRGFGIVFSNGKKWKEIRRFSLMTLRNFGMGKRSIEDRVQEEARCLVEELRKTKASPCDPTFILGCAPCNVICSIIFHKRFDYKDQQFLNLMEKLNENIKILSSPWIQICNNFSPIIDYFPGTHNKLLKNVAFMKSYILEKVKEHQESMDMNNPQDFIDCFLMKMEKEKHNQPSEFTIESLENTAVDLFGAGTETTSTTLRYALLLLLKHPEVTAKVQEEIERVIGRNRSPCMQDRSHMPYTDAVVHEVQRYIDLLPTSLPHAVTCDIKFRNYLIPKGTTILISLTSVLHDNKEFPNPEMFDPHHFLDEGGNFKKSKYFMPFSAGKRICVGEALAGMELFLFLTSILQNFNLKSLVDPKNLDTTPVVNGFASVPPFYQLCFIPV

Structure (SMILES)	AC50
Cc1ccc(CS(=O)(=O)CCC(=O)NCc2cccs2)cc1	5.01 µM (inconclusive)
Cc1cccc(Nc2ccncc2S(=O)(=O)NC(=O)NC(C)C)c1 [TORSEMIDE]	12.6 µM (inconclusive)
Cc1ccc(/C=C/c2nnc(-c3ccc(C)cc3)o2)cc1	5.62 µM (inconclusive)
Fc1ccccc1OCCCCCCN1CCCC1	39.8 µM (inconclusive)
Cn1c(=O)c(CCc2ccccc2)nc2cnc(Nc3ccccc3)nc21	10 µM (inconclusive)

The remaining lines, values ahead:

AC50	Structure (SMILES)
1.12 µM (inconclusive)	Cc1nn(-c2ccccc2)c(-c2ccccc2)c1C(=O)O
12.6 µM (inconclusive)	COc1ccc(NC(=O)N2CC[C@@]3(CCCN(C(=O)c4ccc(OC)cc4)C3)C2)cc1
